# Patent US20120128580A1, “PRESELECTION OF SUBJECTS FOR THERAPEUTIC TREATMENT WITH ELESCLOMOL BASED ON HYPOXIC STATUS” (SYNTA PHARMACEUTICALS CORP., priority 2010, published 2012)
# Legend:
# [1] = system: solid tumors; experiment: Trial of elesclomol in subjects with solid tumors stratified by level of hypoxia; assay type: in vivo, human; details: elesclomol alone or in combination
# Description: Subjects diagnosed with solid tumors are recruited for a study to determine the efficacy of elesclomol in the treatment of solid tumors, preferably tumors from the same tissue origin, e.g., breast, prostate, lung, liver, brain, colorectal, etc. Inclusion criteria include the presence of a solid tumor. Exclusion criteria include the presence of an ischemia related disease or disorder including, e.g., ischemic heart or vascular disease, poor circulation, diabetes, macular degeneration, recent stroke, or other ischemic events or conditions; or surgery planned during the duration of the trial. […]
# All subjects are treated with elesclomol, either alone or in combination with one or more additional chemotherapeutic agents. […] Subjects are monitored for response to the agent throughout the trial, at the end of the trial, and at regular intervals after the conclusion of the trial using routine methods including, but not limited to, e.g., imaging, hematology, and physical examination. […] Preferably, the subjects continue to be monitored for outcomes beyond the formal end of the trial. […]
# An analysis of the samples collected from subjects prior to and optionally during treatment is performed to determine the efficacy of elesclomol for the treatment of cancer based on the level of hypoxia of the tumor based on markers assessed prior to and optionally during the treatment of the subjects. […]
# [2] = system: cancer; experiment: Treatment outcomes by level of hypoxia in historical samples; assay type: in vivo, human
# Protocol: An analysis using samples collected from subjects during treatment is performed to determine the efficacy of elesclomol for the treatment of cancer based on the level of hypoxia of the tumor based on markers assessed prior to and/or during the treatment of the subjects. […] The samples are analyzed for the level of hypoxia based on the amount or activity of a marker present. […] Various portions of the tumor tissue can also be analyzed when sufficient material is available, e.g., adjacent to the necrotic core, in the center of the tumor, adjacent to or including tumor vasculature, adjacent to normal tissue, etc. One or more markers of hypoxia are measured in each of the subjects, e.g., at least one isoform or subunit of lactate dehydrogenase (LDH) or hypoxia inducible factor (HIF); at least one pro-angiogenic form of vascular endothelial growth factor (VEGF), phosphorylated VEGF receptor (pKDR) 1, 2, or 3, neurolipin 1 (NRP-1), pyruvate dehydrokinase (PDH-K), and ornithine decarboxylase (ODC). […]
smiles,measurement,setting,value
"CN(NC(=O)CC(=O)NN(C)C(=S)c1ccccc1)C(=S)c1ccccc1 [Elesclomol, N-malonyl-bis(N′-methyl-N′-thiobenzoylhydrazide)]",response of subjects with a low level of hypoxia compared to a high level of hypoxia,[1],better response
same,response of subjects with a low level of hypoxia compared to a high level of hypoxia,[2],better response
